Patent publication US20220313658A1, “YAP Inhibition for Wound Healing” (The Board of Trustees of the Leland Stanford Junior …, priority 2019, published 2022)

What was measured:
[1] = test system: dorsal excisional wounds; assay: Quantitative analysis of collagen/ECM ultrastructure (Picrosirius Red, machine learning) of healed wounds; type: in vivo, mouse
Method: For analysis of Picrosirius Red-stained histologic sections, scars and surrounding normal skin from three biologic replicates were randomly imaged at 5 to 10 separate locations each, for a minimum of 20 images per experimental condition. Next, color deconvolution of Picrosirius Red images was performed in ImageJ using the algorithm previously described by Ruifrok et al., (A. C. Ruifrok, D. A. Johnston, Quantification of histochemical staining by color deconvolution. Anal Quant Cytol Histol 23, 291-299 (2001)) wherein each pure stain is characterized by absorbances within three RGB channels (Color 1=[1 0 0], Color 2=[0 1 0], Color 3=[1 1 1]). Ortho-normal transformation of the histology images produced individual images corresponding to each color's individual contribution to the image. Applied to birefringent Picrosirius Red images (green to red color under polarized light depending on packing of fiber bundles), this technique produced deconvoluted red and green images corresponding to mature and immature connective tissue fibers, which were then analyzed independently. Analysis was thus performed purely using extracellular matrix fibers, with no cellular elements included. Noise reduction of deconvoluted fibers was achieved using an adaptive Wiener filter in Matlab 2019a (wiener2 function), which tailors itself to the local image variance within a pre-specified neighborhood (3-by-3 pixels in the current application). The filter preferentially smooths regions with low variance, thereby preserving sharp edges of fibers. Smooth images were then binarized using the im2bw command and processed through erosion and dilation filters with both linear and diamond-shaped structuring elements to select for fiber-shaped objects. Finally, the fiber network was “skeletonized” using the bwmorph command and various parameters of the digitized map (fiber length, width, persistence, alignment, etc.) were measured using the regionprops command. Dimensionality reduction of quantified fiber network properties by […] stochastic neighbor embedding (t-SNE) was achieved using the default tsne (distance metric specified as Euclidian distance) command in Matlab. A Matlab script containing the fiber quantification pipeline is available at the following Github repository: https://github.com/shamikmascharak/Mascharak-et-al-ENF
To overcome these challenges, a novel machine learning algorithm recently reported to quantitatively assess connective tissue and fibrosis based on standard histology stains was employed. (S. Mascharak et al., Automated machine learning analysis of connective tissue networks in acute and chronic skin fibroses (manuscript submitted). (2019)) Briefly, images of Picrosirius Red-stained tissue were color-deconvoluted to isolate ECM fibers from cell bodies and nuclei. Fiber components were image-processed to reduce noise, then binarized to produce a digital map of thousands of fibers and branchpoints. A panel of individual (e.g., length, width) and group (e.g., packing, alignment) fiber properties was then measured to quantitatively profile ECM features.
Verteporfin- and control-treated specimens were stained with Picrosirius Red and subjected to this analysis.

[2] = test system: dorsal excisional wounds; assay: Dorsal excisional wounding, wound base injected with Verteporfin: gross, histology, immunofluorescence; type: in vivo, mouse
Source text: P60 En-1^Cre;R26^mTmG, En-1^Cre;Ai6, and En-1^Cre-ERT;Ai6 mice were used for cutaneous wound healing experiments in accordance with well-established protocols. Briefly, mice were anesthetized (2% isofiuorane), their dorsal hair was removed with depilatory cream, and the dorsal skin was prepped with alcohol wipes. Next, two 6 mm full-thickness circular wounds were placed through the panniculus carnosus on the dorsum of each animal at the same level, roughly 6 mm below the ears and 4 mm lateral to the midline. The wounds were then stented open by 12 mm diameter silicone rings secured around the wound perimeter with glue and 8 simple interrupted Ethilon 6-0 sutures (Ethicon). For mice receiving mechanotransduction inhibitor, 30 μL of Verteporfin (1 mg/mL) was injected locally into the wound base; PBS was injected into wounds for vehicle controls. Post-operative analgesia was accomplished with buprenorphine 0.05 mg/kg every four hours for three doses, and then as indicated. Dressings were changed every other day under anesthesia. All wounds were fully re-epithelialized by post-operative day (POD) 14, at which time the wound and surrounding skin (used as unwounded control) were harvested and processed for histology. Induction of En-1^Cre-ERT;Ai6 mice was achieved by 5 consecutive days of intraperitoneal tamoxifen injections (90% corn oil/ethanol v/v; 200 mg/kg body weight) prior to wounding. In all experiments, a minimum of 3 mice with 2 wounds each was used for each treatment group.
Tissues were fixed in 2% paraformaldehyde for 16 h at 4° C. Samples were prepared for embedding by soaking in 30% sucrose in PBS for 1 week at 4° C. Samples were then removed from the sucrose solution, and tissue blocks were prepared by embedding in Tissue Tek U.C.T. (Sakura Finetek) under dry ice to achieve rapid freezing. Frozen blocks were mounted on a Thermo Scientific CryoStar NX70 cryostat, and 10 μm-thick sections were transferred to SuperfrostfPlus adhesive slides (Fisher). For hematoxylin and eosin staining, standard protocols were used with no modifications. For immunofluorescent staining, slides were blocked for 1 hr with Power Block (Biogenex) prior to addition of the following primary antibodies: Abeam ab34710 (anti-collagen type I), Abeam ab28340 (anti-CD26), Invitrogen MA5-15915 (anti-Dlk1), Abeam ab51317 (anti-Scat), Abeam ab5694 (anti-α-SMA), Santa Cruz Biotechnology sc-101199 (anti-YAP), Abeam ab7800 (anti-CK14), and Abeam ab52625 (anti-CK19). Slides were then incubated for 1 h with Alexa Fluor 568 or Alexa Fluor 647-conjugated anti-rabbit, anti-rat, or anti-mouse antibodies (Invitrogen). Finally, slides were mounted in Fluoromount-G mounting solution with DAPI (Thermo Fisher). Brightfield images were acquired with a Leica DMI4000B microscope, while fluorescent images were acquired with a Leica DM6000 SP5 upright confocal microscope.
Given that En-1 activation was associated with adoption of a pro-fibrotic phenotype, and that YAP inhibition prevented En-1 activation in vitro, whether YAP inhibition could also block En-1 activation in vivo to reduce scarring in a mouse wounding model was assessed. Adult En-1^Cre;R26^mTmG mice were wounded, and the POD 0 wounds were treated by injecting the wound base with either PBS (control) or Verteporfin (1 mg/mL). […] Wounds were harvested for gross and histological examination at POD 14, 30, or 90. As expected, control wounds healed in a typical scarring fashion (FIG. 4, A middle row). Even after 90 days, the wound site remained bare, forming a distinct region of pale scar tissue in which no hair regrowth occurred (FIG. 4, A middle row, right image). […] This was a striking result, as a hallmark of adult mammalian (scarring) wound healing is a complete lack of regeneration of secondary appendages (e.g., hair follicles, sweat glands), as exemplified by the bare area that remained following control wound healing. […]

[3] = four treatments (POD 0, 4, 8 and 12)
[4] = 30 days, relative to control wounds

verteporfin
Clustering of connective tissue parameters, Verteporfin-treated wounds vs unwounded skin ([1]; 30 days): increasing overlap
Clustering of connective tissue parameters, Verteporfin-treated wounds vs unwounded skin ([1]; 90 days): complete overlap
ECM fiber metrics (fiber length, width, branching, etc.) ([1]; POD 14): comparable to unwounded skin
Clustering of connective tissue parameters, Verteporfin-treated wounds vs unwounded skin ([1]; after 14 days): largely overlapping clusters
ECM features [1, 3]: diverged from those of unwounded skin
Fibronectin staining ([2]; 14 days, vs control wounds): comparatively stronger staining for fibronectin
col-I staining ([2]; 14 days, vs control wounds): substantially reduced col-I staining
Distribution of Dlk1+ cells ([2]; 30 days): present throughout the dermis
CD26 staining [2, 4]: decreased staining for CD26
Number of EPFs in wounds [2, 4]: significantly fewer EPFs
Chains of YAP+ cells ([2]; 30 days, vs control wounds): markedly shorter
IF staining of appendages for cytokeratins 14 and 19 (hair follicle and sweat gland markers) ([2]; POD 90): positive IF staining
Oil Red O lipid staining (sebaceous glands) ([2]; POD 90): positive lipid staining
Regrowth of dermal appendages ([2]; POD 90 (FIG. 4, C)): regrowth of hair follicles and other dermal appendages
Fibroblast lineage content of wounds (ENFs vs EPFs) ([2]; after 14 days): almost exclusively ENFs
H&E histology: dermal appendage structures ([2]; by 1 and 3 months): numerous structures morphologically resembling hair follicles or sweat glands
H&E histology: fibrosis and cellularity ([2]; by 2 weeks): reduced fibrosis and increased cellularity
Hair regrowth [2, 3]: grossly reduced
Wound closure [2, 3]: delayed
Hair growth within healed wound ([2]; single dose POD 0, by 30 days): substantial hair growth within the healed wound
Gross appearance of healed wound ([2]; single dose POD 0, by 90 days): grossly indistinguishable from unwounded skin
Wound closure rate ([2]; single injection 1 mg/mL into wound base at POD 0, vs PBS): did not significantly affect wound closure rate
Number of EPFs in wounds ([2]; three months of healing): dramatically reduced numbers of EPFs
YAP+ cells ([2]; three months of healing): rare YAP^+ cells
α-SMA+ cells ([2]; three months of healing): virtually no α-SMA^+ cells
Wound closure rates, gross appearance and ECM features ([2]; two doses (POD 0 and 4)): comparable to those of wounds treated with single Verteporfin dose
